Series [1] in a line: Plasma protein binding by equilibrium dialysis. It counts as in vitro ADME. The note with it: rat, 37° C., plasma vs isotonic phosphate buffer pH 7.4, read-out: % free in plasma. On the procedure:
(§1) Measurement of Plasma Levels and Plasma Protein Binding Following Oral Administration to Rats
The plasma protein binding of compounds was measured using the equilibrium dialysis technique (W. Lindner et al, J. Chromatography, 1996, 677, 1-28 ). Compound was dialysed at a concentration of 20 μM for 18 hours at 37° C. with plasma and isotonic phosphate buffer pH 7.4 (1 ml of each in the dialysis cell). A Spectrum® 20-cell equilibrium dialyser was used together with Teflon, semi-micro dialysis cells and Spectra/Por®2 membrane discs with a molecular weight cut off 12-14000 Dalton, 47 mm (supplied by PerBio Science UK Ltd, Tattenhall, Cheshire). Plasma and buffer samples are removed following dialysis and analysed using HPLCUV/MS (high performance liquid chromatography with UV and mass spec detection) to give the % free level in plasma.
Background: Equilibrium dialysis compares concentrations on both sides of a semipermeable membrane.

A short description of series [2]: Plasma levels following oral administration to rats. The settings on record: rat, oral gavage; including both bound and free; normalised dose of 1 mg compound per kilogram of rat body weight. It counts as in vivo. How it is done:
as §1
Planetary Milled compounds [15 mins, 500 rpm, 5 Zirconium Balls, in a Puluerisette 7 Mill (Glen Creston Ltd, Stanmore, Middlesex, UK)] were suspended in 0.5% HPMC Tween and dosed to High Fat Fed (Research Diets, D12451, ad lib feeding 14 days) Female Alderley Park Zucker or Alderley Park Wistar rats at rate of 5 mls/kg, at doses between 0.3 and 10 mg/kg by oral gavage.
Samples of plasma were obtained either by conscious blood sampling or terminal blood sampling as follows:
Conscious blood sampling (for compound level or blood chemistry)—Intravenous blood samples were taken from tail vein using 600 μl Starstedt Multivette (EDTA) and 22 G needle at the required time point. […]
The reconstituted samples were then analysed using high performance liquid chromatography with tandem mass spectrometry detection (HPLC-MS-MS)”. […]
The concentration of test samples was determined from the ratio of the peak height of the test sample to the peak height of the internal standard. The concentration of the test sample was calculated with reference to a standard curve relating the ratio to the concentration prepared by using known concentrations of test sample added to samples of rat plasma using (3-isopropoxy-5-benzyoxy-benzoyl)amino pyridine 3-carboxylic acid as an internal standard, treated as described above.

As to `COC[C@H](C)Oc1cc(O[C@@H](C)Cc2ccccc2OC)cc(C(=O)Nc2ccc(C(=O)O)cn2)c1` [Example 2.1, 6-{3-[(1S)-1-methyl-2-(2-methoxyphenyl)ethoxy]-5-[(1S)-2-methoxy-1-methylethoxy]-benzoylamino}-3-pyridine carboxylic acid], the fraction unbound at 18 hours, 20 μM in series [1] stood at 0.0042. Further, the “Peak Blood levels” value in series [2] was 1.29 µM.
